{"source": "patent US12319652B2", "about": "“Salts and solid forms of (R)-1-(5-methoxy-1H-indol-1-yl)-N,N-dimethylpropan-2-amine” (priority 2021, dated 2025)", "key": {"[1]": {"experiment": "Solubility determinations in SIF buffers (FaSSIF, FeSSIF, FaSSGF)", "type": "physicochemical", "description": "At this stage ca. 1 g of each front-runner salt form was prepared. Salt forms that offered significant solubility and stability advantages over the non-ionized API were prioritized. […] Scale Up\nThe solubility of the salts below was determined in FaSSIF, FeSSIF and FaSSGF by reference to the calibration curve of amorphous compound 1.\nSeparate portions of compound 1 were weighed out into aluminum boats and were charged to the relevant volumetric flasks. Solutions were made to volume with 1 to 1 (v/v) acetonitrile/purified water to give calibrants of known API concentrations and analyzed by HPLC, suitable to determine the concentration of compound 1 free base in the SIF buffer solubility study.\nEach sample (150 mg) was suspended in the relevant SIF buffer (5.0 ml), to give a concentration of 30 mg/ml and maintain at 37° C. for 24 h. The pH was adjusted using 1 M HCl or 1 M NaOH, to ensure that the suspension remains in range.\nSample (1 ml) of the well-stirred representative suspensions was obtained at 1 h, 3 h, 6 h and 24 h and the pH was recorded. The pH of the bulk suspension was re-adjusted when necessary. The obtained sample from each vial was centrifuged, and the supernatant was analysed by HPLC (note, the analyte was diluted, when outside of the calibration range); XRPD analysis was performed on the wet sample pellet for evidence of form change, as well as on the oven-dried pellet (undervacuum at 40° C.)."}, "[2]": {"experiment": "Dynamic vapor sorption (DVS)", "type": "physicochemical", "description": "There are two main methods to use, one is by time where the equilibration is given by a fixed time, i.e., 1 hour per step and is appropriate for an unknown phase. The second, is by mass per time unit (dm/dt) of 0.002%/min; that is when the difference in weight is less than 0.002%, the instrument moves onto the next step. For unknown hygroscopicity, the method by time is indicated because it gives an idea of water affinity without wasting much time. Ideally the analyses are repeated using the mass equilibration method to confirm. By experience for hygroscopic samples, the analysis can continue for days. For non-hygroscopic samples the difference between the two methods may not be significant.\nConsequently, amorphous batch 1 was analyzed by the fixed time method and once compound 1 fumarate crystalline polymorphic Form A was generated the analyses was repeated as mass per unit time equilibrated @dm/dt ([…]) and is given below (refer to FIG. 12).\n(§1) The moisture sorption properties of the feed API were analysed by DVS Intrinsic instrument (Surface Measurement System). Approximately 20 to 50 mg of API was weighed onto an aluminium pan and loaded into the instrument equilibrated at 25° C. The sample was equilibrated under a dry atmosphere (0% relative humidity) for 60 minutes, before increasing the humidity from 0% to 30% at 5%4 step increment and from 30% to 90% at 10% step increment. A desorption cycle was also applied from 90% to 30% (10% step decrement) and from 30% to 0% (5% step decrement). A rate of change in mass per time unit (dm/dt) of 0.002%/min was set as the equilibrium parameter. Kinetic and isotherm graphs were calculated.\nSpecimens were equilibrated at 0% RH for 60 min, prior to DVS analyses (stepped increment % RH up to 90% RH and stepped decrement % RH down to 0% RH.\nas §1, with “5%” for “5%4”"}, "[3]": {"type": "physicochemical", "details": "40° C./75% RH, 10-day time point", "description": "Equilibrium Humidity Evaluation (40° C./75% RH for 10 Days)\n100 mg portions of compound 1 salts (for inputs see table below) were placed in the relevant open vials. The powders were finely divided and distributed evenly over the base of the vial, such that equal material coverage across the panel was observed. These samples were then maintained 40°C. under 75% RH. The samples were sub-sampled at intervals of 5 and 10 days and analysed by ^1H NMR, HPLC, XRPD, DSC, TGA and PLM, for evidence of phase change or chemical degradation (FIG. 269-297)."}}}
{"smiles": "COc1ccc2c(ccn2C[C@@H](C)N(C)C)c1.O=C(O)/C=C\\C(=O)O", "note": "[Compound 1 · Maleate]", "values": [{"measurement": "Solubility", "setting": "[1]; FaSSGF (ph 1.6), t = 1 h@37° C.", "result": ">30", "unit": "mg/mL"}, {"measurement": "Solubility", "setting": "[1]; FaSSGF (ph 1.6), t = 3 h@37° C.", "result": ">30", "unit": "mg/mL"}, {"measurement": "Solubility", "setting": "[1]; FaSSGF (ph 1.6), t = 6 h@37° C.", "result": ">30", "unit": "mg/mL"}, {"measurement": "Solubility", "setting": "[1]; FaSSGF (ph 1.6), t = 24 h @37° C.", "result": ">30", "unit": "mg/mL"}, {"measurement": "Solubility", "setting": "[1]; FaSSIF (ph 6.5), t = 1 h@37° C.", "result": ">30", "unit": "mg/mL"}, {"measurement": "Solubility", "setting": "[1]; FaSSIF (ph 6.5), t = 3 h@37° C.", "result": ">30", "unit": "mg/mL"}, {"measurement": "Solubility", "setting": "[1]; FaSSIF (ph 6.5), t = 6 h@37° C.", "result": ">30", "unit": "mg/mL"}, {"measurement": "Solubility", "setting": "[1]; FaSSIF (ph 6.5), t = 24 h @37° C.", "result": ">30", "unit": "mg/mL"}, {"measurement": "Solubility", "setting": "[1]; FeSSIF (ph 5.0), t = 1 h@37° C.", "result": ">30", "unit": "mg/mL"}, {"measurement": "Solubility", "setting": "[1]; FeSSIF (ph 5.0), t = 3 h@37° C.", "result": ">30", "unit": "mg/mL"}, {"measurement": "Solubility", "setting": "[1]; FeSSIF (ph 5.0), t = 6 h@37° C.", "result": ">30", "unit": "mg/mL"}, {"measurement": "Solubility", "setting": "[1]; FeSSIF (ph 5.0), t = 24 h @37° C.", "result": ">30", "unit": "mg/mL"}]}
{"smiles": "COc1ccc2c(ccn2C[C@@H](C)N(C)C)c1.O=C(O)c1ccccc1", "note": "[compound 1 benzoate]", "values": [{"measurement": "DVS isotherm type / hygroscopicity", "setting": "[2]; 0 to 90 to 0% RH", "result": "hygroscopic"}, {"measurement": "DVS 0 to 90 to 0% RH (dm/dt <0.002%)", "setting": "[2]; 5.0% RH, desorption", "result": -0.39, "unit": "%"}, {"measurement": "DVS 0 to 90 to 0% RH (dm/dt <0.002%)", "setting": "[2]; 5.0% RH, sorption", "result": 0.02, "unit": "%"}, {"measurement": "DVS 0 to 90 to 0% RH (dm/dt <0.002%)", "setting": "[2]; 10.0% RH, desorption", "result": "−0.34", "unit": "%"}, {"measurement": "DVS 0 to 90 to 0% RH (dm/dt <0.002%)", "setting": "[2]; 10.0% RH, sorption", "result": 0.04, "unit": "%"}, {"measurement": "DVS 0 to 90 to 0% RH (dm/dt <0.002%)", "setting": "[2]; 15.0% RH, desorption", "result": -0.29, "unit": "%"}, {"measurement": "DVS 0 to 90 to 0% RH (dm/dt <0.002%)", "setting": "[2]; 15.0% RH, sorption", "result": 0.06, "unit": "%"}, {"measurement": "DVS 0 to 90 to 0% RH (dm/dt <0.002%)", "setting": "[2]; 20.0% RH, desorption", "result": "−0.25", "unit": "%"}, {"measurement": "DVS 0 to 90 to 0% RH (dm/dt <0.002%)", "setting": "[2]; 20.0% RH, sorption", "result": 0.10, "unit": "%"}, {"measurement": "DVS 0 to 90 to 0% RH (dm/dt <0.002%)", "setting": "[2]; 25.0% RH, desorption", "result": "−0.19", "unit": "%"}, {"measurement": "DVS 0 to 90 to 0% RH (dm/dt <0.002%)", "setting": "[2]; 25.0% RH, sorption", "result": 0.10, "unit": "%"}, {"measurement": "DVS 0 to 90 to 0% RH (dm/dt <0.002%)", "setting": "[2]; 30.0% RH, desorption", "result": -0.16, "unit": "%"}, {"measurement": "DVS 0 to 90 to 0% RH (dm/dt <0.002%)", "setting": "[2]; 30.0% RH, sorption", "result": 0.13, "unit": "%"}, {"measurement": "DVS 0 to 90 to 0% RH (dm/dt <0.002%)", "setting": "[2]; 40.0% RH, desorption", "result": "−0.19", "unit": "%"}, {"measurement": "DVS 0 to 90 to 0% RH (dm/dt <0.002%)", "setting": "[2]; 40.0% RH, sorption", "result": 0.19, "unit": "%"}, {"measurement": "DVS 0 to 90 to 0% RH (dm/dt <0.002%)", "setting": "[2]; 50.0% RH, desorption", "result": 0.20, "unit": "%"}, {"measurement": "DVS 0 to 90 to 0% RH (dm/dt <0.002%)", "setting": "[2]; 50.0% RH, sorption", "result": 0.30, "unit": "%"}, {"measurement": "DVS 0 to 90 to 0% RH (dm/dt <0.002%)", "setting": "[2]; 60.0% RH, desorption", "result": 0.41, "unit": "%"}, {"measurement": "DVS 0 to 90 to 0% RH (dm/dt <0.002%)", "setting": "[2]; 60.0% RH, sorption", "result": 0.42, "unit": "%"}, {"measurement": "DVS weight gain at 70% RH", "setting": "[2]; 70% RH (printed 70° RH in Example 8)", "result": "ca. 0.6 % w/w"}, {"measurement": "DVS 0 to 90 to 0% RH (dm/dt <0.002%)", "setting": "[2]; 70.0% RH, desorption", "result": 0.61, "unit": "%"}, {"measurement": "DVS 0 to 90 to 0% RH (dm/dt <0.002%)", "setting": "[2]; 70.0% RH, sorption", "result": 0.58, "unit": "%"}, {"measurement": "DVS 0 to 90 to 0% RH (dm/dt <0.002%)", "setting": "[2]; 80.0% RH, desorption", "result": 0.92, "unit": "%"}, {"measurement": "DVS 0 to 90 to 0% RH (dm/dt <0.002%)", "setting": "[2]; 80.0% RH, sorption", "result": 0.89, "unit": "%"}, {"measurement": "DVS 0 to 90 to 0% RH (dm/dt <0.002%)", "setting": "[2]; 90.0% RH, desorption", "result": 1.52, "unit": "%"}, {"measurement": "DVS 0 to 90 to 0% RH (dm/dt <0.002%)", "setting": "[2]; 90.0% RH, sorption", "result": 1.52, "unit": "%"}, {"measurement": "DVS desorption behaviour (hysteresis)", "setting": "[2]; during desorption", "result": "desorption profile was unusual and ended beneath unity"}, {"measurement": "Change of purity profile / CP", "setting": "[3]", "result": "little changed"}, {"measurement": "Disproportionation in FaSSGF", "setting": "[1]; 1H NMR of isolated residue, non-ionised benzoic acid present", "result": "disproportionated"}, {"measurement": "Observation upon pH adjustment from 4.17 to 1.63", "setting": "[1]; SIF buffer solubility study", "result": "solid was observed"}]}
